Columns and labels:
[1] = test system: THP-1 TNFα release; experiment: LPS-stimulation of THP-1 cells, TNF-α release by ELISA; type: cell-based; conditions: Homo sapiens, THP-1, 6 h; read-out: Inhibitor activity versus THP-1 TNFα release
Procedure: THP-1 cells were plated in 100 μl at a density of 4×10^4 cells/well in V-bottomed 96 well tissue culture treated plates and incubated at 37° C. in 5% CO2 for 16 hrs. 2 hrs after the addition of the inhibitor in 100 μl of tissue culture media, the cells were stimulated with LPS (E coli strain 005:B5, Sigma) at a final concentration of 1 μg/ml and incubated at 37° C. in 5% CO2 for 6 hrs. TNF-α levels were measured from cell-free supernatants by sandwich ELISA (R&D Systems #QTA00B).

[2] = molecular target: T1, p38 MAP Kinase a (Homo sapiens, UniProt Q16539); experiment: p38 MAP Kinase activity, radiometric filter-binding assay (Upstate); type: biochemical; conditions: IC50 range; read-out: Inhibitor activity versus p38 MAPKa
T1 construct: purchased Upstate (Dundee UK)
Procedure: The ability of compounds to inhibit p38 MAP a Kinase activity was measured in an assay performed by Upstate (Dundee UK). In a final reaction volume of 25 μL, p38 MAP Kinase a (5-10 mU) is incubated with 25 mM Tris pH 7.5, 0.002 mMEGTA, 0.33 mg/mL myelin basic protein, 10 mM MgAcetate and [g-33P-ATP] (specific activity approx. 500 cpm/pmol, concentration as required). The reaction is initiated by the addition of the MgATP mix. After incubation for 40 minutes at room temperature, the reaction is stopped by the addition of 5 μL of a 3% phosphoric acid solution. 10 μL of the reaction is then spotted onto a P30 filtermat and washed three times for 5 minutes in 75 mM phosphoric acid and once in methanol prior to drying and scintillation counting.
Duplicate data points are generated from a 1/3 log dilution series of a stock solution in DMSO. Nine dilutions steps are made from a top concentration of 10 μM, and a ‘no compound’ blank is included. The standard radiometric filter-binding assay is performed at an ATP concentration at, or close to, the Km. Data from scintillation counts are collected and subjected to free-fit analysis by Prism software. From the curve generated, the concentration giving 50% inhibition is determined and reported.

T1 sequence (Q16539 whole entry): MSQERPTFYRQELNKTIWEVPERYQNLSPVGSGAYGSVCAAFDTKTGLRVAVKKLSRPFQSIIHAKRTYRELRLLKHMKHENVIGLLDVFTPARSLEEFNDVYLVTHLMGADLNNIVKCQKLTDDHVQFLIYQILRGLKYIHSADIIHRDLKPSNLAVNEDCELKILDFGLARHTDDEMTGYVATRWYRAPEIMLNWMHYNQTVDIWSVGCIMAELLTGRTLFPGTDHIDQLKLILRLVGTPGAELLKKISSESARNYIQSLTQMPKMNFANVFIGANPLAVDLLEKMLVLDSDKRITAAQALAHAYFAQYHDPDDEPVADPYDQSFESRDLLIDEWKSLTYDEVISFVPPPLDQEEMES

SMILES	IC50 [1] [nM]	IC50 [2] [nM]
CC(C)(C)OC(=O)[C@@H](NCCc1cc(F)c(-n2c(N)c(C(=O)c3ccc(F)cc3)ccc2=O)c(F)c1)c1ccccc1 [Example 27, tert-butyl (2S)-[(2-{4-[6-amino-5-(4-fluorobenzoyl)-2-oxopyridin-1(2H)-yl]-3,5-difluorophenyl}ethyl)amino](phenyl)acetate]	< 100	100 to 1000
Nc1c(C(=O)c2ccc(F)cc2)ccc(=O)n1-c1c(F)cc(CCN[C@H](C(=O)OC2CCCC2)C2CCCCC2)cc1F [Example 28, Cyclopentyl (2S)-[(2-{4-[6-amino-5-(4-fluorobenzoyl)-2-oxopyridin-1(2H)-yl]-3,5-difluorophenyl}ethyl)amino](cyclohexyl)acetate]	100 to 1000	100 to 1000
CC(C)C[C@@H](NCCc1cc(F)c(-n2c(N)c(C(=O)c3ccc(F)cc3)ccc2=O)c(F)c1)C(=O)OC1CCCC1 [Example 29, Cyclopentyl N-(2-{4-[6-amino-5-(4-fluorobenzoyl)-2-oxopyridin-1(2H)-yl]-3,5-difluorophenyl}ethyl)-D-leucinate]	< 100	100 to 1000
CC(C)C[C@@H](NCCc1cc(F)c(-n2c(N)c(C(=O)c3ccc(F)cc3)ccc2=O)c(F)c1)C(=O)OC(C)(C)C [Example 30, tert-butyl N-(2-{4-[6-amino-5-(4-fluorobenzoyl)-2-oxopyridin-1(2H)-yl]-3,5-difluorophenyl}ethyl)-D-leucinate]	100 to 1000	100 to 1000
CC(C)(C)OC[C@H](NCCc1cc(F)c(-n2c(N)c(C(=O)c3ccc(F)cc3)ccc2=O)c(F)c1)C(=O)OC1CCCC1 [Example 31, Cyclopentyl N-(2-{4-[6-amino-5-(4-fluorobenzoyl)-2-oxopyridin-1(2H)-yl]-3,5-difluorophenyl}ethyl)-O-tert-butyl-L-serinate]	< 100	100 to 1000
Nc1c(C(=O)c2ccc(F)cc2F)ccc(=O)n1-c1c(F)cc(CCN[C@H](C(=O)OC2CCCC2)c2ccccc2)cc1F [Example 34, Cyclopentyl (2S)-[(2-{4-[6-amino-5-(2,4-difluorobenzoyl)-2-oxopyridin-1(2H)-yl]-3,5-difluorophenyl}ethyl)amino](phenyl)acetate]	< 100	< 100
Nc1c(C(=O)c2ccc(F)cc2F)ccc(=O)n1-c1c(F)cc(CCN[C@H](C(=O)OC2CCCC2)C2CCCCC2)cc1F [Example 36, Cyclopentyl (2S)-[(2-{4-[6-amino-5-(2,4-difluorobenzoyl)-2-oxopyridin-1(2H)-yl]-3,5-difluorophenyl}ethyl)amino](cyclohexyl)acetate]	< 100	100 to 1000
CC(C)C[C@H](NCCc1cc(F)c(-n2c(N)c(C(=O)c3ccc(F)cc3F)ccc2=O)c(F)c1)C(=O)OC(C)(C)C [Example 37, tert-butyl N-(2-{4-[6-amino-5-(2,4-difluorobenzoyl)-2-oxopyridin-1(2H)-yl]-3,5-difluorophenyl}ethyl)-L-leucinate]	< 100	100 to 1000
CC(C)C[C@@H](NCCc1cc(F)c(-n2c(N)c(C(=O)c3ccc(F)cc3F)ccc2=O)c(F)c1)C(=O)OC1CCCC1 [Example 38, Cyclopentyl N-(2-{4-[6-amino-5-(2,4-difluorobenzoyl)-2-oxopyridin-1(2H)-yl]-3,5-difluorophenyl}ethyl)-D-leucinate]	< 100	100 to 1000
CC(C)C[C@@H](NCCc1cc(F)c(-n2c(N)c(C(=O)c3ccc(F)cc3F)ccc2=O)c(F)c1)C(=O)OC(C)(C)C [Example 39, tert-butyl N-(2-{4-[6-amino-5-(2,4-difluorobenzoyl)-2-oxopyridin-1(2H)-yl]-3,5-difluorophenyl}ethyl)-D-leucinate]	< 100	100 to 1000
CC(C)(C)OC[C@H](NCCc1cc(F)c(-n2c(N)c(C(=O)c3ccc(F)cc3F)ccc2=O)c(F)c1)C(=O)OC1CCCC1 [Example 40, Cyclopentyl N-(2-{4-[6-amino-5-(2,4-difluorobenzoyl)-2-oxopyridin-1(2H)-yl]-3,5-difluorophenyl}ethyl)-O-tert-butyl-L-serinate]	< 100	< 100

Source: patent US20100267774A1, “P38 MAP KINASE INHIBITORS” (CHROMA THERAPEUTICS LTD., priority 2007, published 2010)
